Assay results taken from patent US11674162B2, “Selective advantage in fermentation” (Ginkgo Bioworks, Inc., priority 2014, dated 2023).

Experiments:
[1] = tested on: NS100; experiment: Growth progress in defined medium, 96 well plate (FIG. 21); assay type: cell-based, Saccharomyces cerevisiae; conditions: strain NS100 (control), 10 mM, YNB medium, 30° C.
Protocol: (§1) The optical density of NS100 and NS101 grown in defined medium with different nitrogen sources was assessed as follows. NS100 and NS101 were grown overnight in YPD medium, washed once in an equal volume of sterile water, and inoculated at 3.33% v/v. […] Data are averages of 3 replicate wells in a 96 well plate; 150 μL per well. 30° C., YNB medium contained 20 g/L glucose, 1.7 g/L YNB base medium without amino acids or ammonium sulfate, 5 g/L sodium sulfate, 100 μg/mL hygromycin, and either 10 mM urea, 10 mM cyanamide, or no nitrogen source. Inoculation was with 5 μL of culture pregrown for 24 hours in the same medium with urea as nitrogen source (FIG. 21).

[2] = tested on: NS101; experiment: as above; assay type: cell-based, Saccharomyces cerevisiae; conditions: strain NS101, 10 mM, YNB medium, 30° C.
Protocol: as §1

[3] = tested on: NS101; experiment: Growth in rich YPD medium with and without cyanamide (FIG. 24); assay type: cell-based, Saccharomyces cerevisiae; conditions: rich YPD medium with 10 mM cyanamide, 30° C.
Protocol: The optical density of NS100 and NS101 grown in rich YPD medium with 100 μg/mL hygromycin and with and without 10 mM cyanamide was assessed as follows. NS100 and NS101 were grown overnight in YNB medium, and inoculated at 3.33% v/v. […] Thus, cyanamide, in addition to functioning as a sole source of nitrogen, may also act as a deterrent for microbial growth. Data are averages of 3 replicate wells in a 96 well plate; 150 μL per well. 30° C., YPD medium or YPD medium with 10 mM cyanamide. Inoculation was with 5 μL of culture pregrown for 24 hours in the YNB medium with urea as nitrogen source (FIG. 24).

[4] = tested on: NS100; experiment: Optical density after 72 hours in defined YNB medium with different nitrogen sources; assay type: cell-based, Saccharomyces cerevisiae; conditions: strain NS100 (control)
Protocol: (§2) Strains NS98, NS99, and NS100 were grown in defined YNB medium with 10 mM urea and 100 μg/mL hygromycin to stationary phase aerobically at 30° C. 1/1000 v/v inoculations were then made into the same defined medium with either 10 mM urea, 10 mM biuret, or no additional nitrogen and grown under the same conditions.
as §2, with “Additionally, strains NS100, NS101, NS111,” for “Strains NS98, NS99,”, “NS112” for “NS100”, “cyanamide,” for “biuret,”

[5] = tested on: NS111; experiment: as above; assay type: cell-based, Saccharomyces cerevisiae; conditions: strain NS111 (cah), 10 mM nitrogen source
Protocol: as §2, with “Additionally, strains NS100, NS101, NS111,” for “Strains NS98, NS99,”, “NS112” for “NS100”, “cyanamide,” for “biuret,”

[6] = tested on: NS112; experiment: as above; assay type: cell-based, Saccharomyces cerevisiae; conditions: strain NS112 (control), 10 mM nitrogen source
Protocol: as §2, with “Additionally, strains NS100, NS101, NS111,” for “Strains NS98, NS99,”, “NS112” for “NS100”, “cyanamide,” for “biuret,”

[7] = tested on: NS101; experiment: as above; assay type: cell-based, Saccharomyces cerevisiae; conditions: strain NS101 (cah), 10 mM nitrogen source
Protocol: as §2, with “Additionally, strains NS100, NS101, NS111,” for “Strains NS98, NS99,”, “NS112” for “NS100”, “cyanamide,” for “biuret,”

[8] = tested on: NS103; experiment: Growth progress in MOPS defined medium with different nitrogen sources; assay type: cell-based, Escherichia coli; conditions: strain NS103, 0.25 mM as sole nitrogen source
Protocol: (§3) Vector and strain construction was as described in Examples 1-4. All vectors contain the ampicillin resistance gene, and 100 ug/mL ampicillin was added to all culture medium. These strains were grown in MOPS defined medium with different nitrogen sources.
(§4) An average of all four strains grown on different ammonium chloride concentrations from 0 to 1.5 mM is also shown as a standard curve for growth with limiting nitrogen. NS91 grown on melamine is similar to the 0 mM ammonium chloride control.
(§5) An average of all four strains grown on different ammonium chloride concentrations from 0 to 1.5 mM is also shown as a standard curve for growth with limiting nitrogen. NS91 grown on ammeline is similar to the 0 mM ammonium chloride control.
(§6) Cultures were grown aerobically at 37° C. with 100 mg/L ampicillin. Pre-cultures were grown in LB media with 100 mg/L ampicillin, washed once with an equal volume of MOPS media containing no nitrogen, and inoculated at 5% v/v of the final fermentation volume. The content of the MOPS medium is outlined in Table 9.

[9] = tested on: NS91; experiment: as above; assay type: cell-based, Escherichia coli; conditions: for ammonium chloride concentration giving similar growth: strain NS91 (control), 0.25 mM as sole nitrogen source; for growth with the compound as nitrogen source: control strain NS91, MOPS medium
Protocol: as §3, §4, §5, §6

[10] = tested on: NS91; experiment: Maximum growth rate on ammeline as sole nitrogen source; assay type: cell-based, Escherichia coli; conditions: strain NS91 (control), 0.5 mM ammeline as sole nitrogen source
Protocol: (§7) Strains can also be selected for improved utilization of melamine derived nitrogen sources, in one example NS88 was passaged for 11 serial transfers in MOPS defined medium with 0.5 mM ammeline as sole nitrogen source. After the final passage, single colonies were isolated, and one was designated as NS93. NS93 and NS91 were grown overnight in medium with 0.5 mM ammonium chloride as sole nitrogen source, and then inoculated in medium with 0.5 mM ammeline as sole nitrogen source.

[11] = tested on: NS93; experiment: as above; assay type: cell-based, Escherichia coli; conditions: strain NS93, 0.5 mM ammeline as sole nitrogen source
Protocol: as §7

[12] = tested on: NS99; experiment: Optical density after 72 hours in defined YNB medium with different nitrogen sources; assay type: cell-based, Saccharomyces cerevisiae; conditions: strain NS99, 10 mM nitrogen source, aerobic 30° C.
Protocol: (§8) Strains NS98 and NS99 are industrial S. cereviaie strains carrying plasmids pNC96 (hyg^R, and a codon optimized trzE from Rhodococcus sp. MEL and pNC97 (hyg^R, and a codon optimized trzE from Rhizobium leguminosarum), respectively. Strain NS100 is the same industral S. cerevisiae stain carrying plasmid pNC67 (hyg^R, nat^R) which serves as a control strain.
as §2

[13] = tested on: NS98; experiment: as above; assay type: cell-based, Saccharomyces cerevisiae; conditions: strain NS98, 10 mM nitrogen source, aerobic 30° C.
Protocol: as §8, §2

[14] = tested on: E. coli strains containing pNC121; experiment: Growth on melamine as sole nitrogen source (FIG. 18); assay type: cell-based, Escherichia coli; conditions: 0.5 mM; E. coli K12, MG1655, B and Crooks strains containing pNC121
Protocol: FIGS. 16, 17, and 18 show E. coli strains derived from E. coli K12, E. coli MG1655, E. coli B, and E. coli Crooks (C) containing either pNC121 with the complete melamine utilization pathway, or pNC53, a control vector. See Tables 7 and 8 for strain details. All the strains containing pNC121 are able to grow on 0.5 mM melamine as sole nitrogen source (FIG. 18).
as §6

[15] = tested on: NS88; experiment: Growth progress in MOPS defined medium with different nitrogen sources; assay type: cell-based, Escherichia coli; conditions: strain NS88, 1 mM nitrogen source
Protocol: as §3, §6

[16] = tested on: NS90; experiment: as above; assay type: cell-based, Escherichia coli; conditions: strain NS90, 1 mM nitrogen source
Protocol: as §3, §6

[17] = Table 11, 10 mM nitrogen source
[18] = Table 10, 10 mM nitrogen source

Structure (SMILES)	Optical Density 600 nm [4, 17]	Optical Density 600 nm [5]	Optical Density 600 nm [6]	Optical Density 600 nm [7]	ammonium chloride concentration giving similar growth [9] [mM]	Optical Density 600 nm [4, 18]	Optical Density 600 nm [12]	Optical Density 600 nm [13]	growth with the compound as nitrogen source [9]	other results
N#CN [cyanamide, Cyanamide]	0.05	3.09	0.15	4.66	–	–	–	–	–	optical density reached [1]: comparable to that with no nitrogen present in the medium; optical density reached [2]: comparable to that with urea; lag phase of NS101 relative to NS100 [3]: shorter lag phase
Nc1nc(N)[nH]c(=O)n1 [ammeline, Ammeline]	–	–	–	–	~0	–	–	–	–	ammonium chloride concentration giving similar growth [8]: ~0.5 mM; maximum growth rate [10]: 0.024 h⁻¹; maximum growth rate [11]: 0.087 h⁻¹
NC(N)=O [urea]	3.12	3.68	3.05	3.60	–	5.22	5.26	5.09	–	–
Nc1nc(N)nc(N)n1 [melamine, Melamine]	–	–	–	–	~0	–	–	–	does not grow	growth on the compound as sole nitrogen source [14]: able to grow; ammonium chloride concentration giving comparable optical density [15]: ~2 mM
NC(=O)NC(N)=O [biuret, Biuret]	–	–	–	–	–	1.21	2.18	2.55	does not grow	ammonium chloride concentration giving comparable optical density [16]: ~3 mM
